Experimental data taken from ChEMBL document CHEMBL1201862, “PubChem BioAssay data set” (2004).
Active and inactive are the calls of the source.

Columns and labels:
[1] = target: Glucose-6-phosphate 1-dehydrogenase (Homo sapiens, UniProt P11413); assay: inhibition of Homo sapiens G6PD, dose series – biochemical, fluorescence, selectivity assay for P. falciparum G6PD inhibitor project, dose response (AID 504792); assay type: functional
[2] = target: T1, Replicative DNA helicase DnaB (Mycobacterium tuberculosis, UniProt P9WMR3); assay: DnaB intein splicing inhibitors, dose response, biochemical, cell-free fluorescence (AID 449749); assay type: functional
T1 sequence (P9WMR3 whole entry): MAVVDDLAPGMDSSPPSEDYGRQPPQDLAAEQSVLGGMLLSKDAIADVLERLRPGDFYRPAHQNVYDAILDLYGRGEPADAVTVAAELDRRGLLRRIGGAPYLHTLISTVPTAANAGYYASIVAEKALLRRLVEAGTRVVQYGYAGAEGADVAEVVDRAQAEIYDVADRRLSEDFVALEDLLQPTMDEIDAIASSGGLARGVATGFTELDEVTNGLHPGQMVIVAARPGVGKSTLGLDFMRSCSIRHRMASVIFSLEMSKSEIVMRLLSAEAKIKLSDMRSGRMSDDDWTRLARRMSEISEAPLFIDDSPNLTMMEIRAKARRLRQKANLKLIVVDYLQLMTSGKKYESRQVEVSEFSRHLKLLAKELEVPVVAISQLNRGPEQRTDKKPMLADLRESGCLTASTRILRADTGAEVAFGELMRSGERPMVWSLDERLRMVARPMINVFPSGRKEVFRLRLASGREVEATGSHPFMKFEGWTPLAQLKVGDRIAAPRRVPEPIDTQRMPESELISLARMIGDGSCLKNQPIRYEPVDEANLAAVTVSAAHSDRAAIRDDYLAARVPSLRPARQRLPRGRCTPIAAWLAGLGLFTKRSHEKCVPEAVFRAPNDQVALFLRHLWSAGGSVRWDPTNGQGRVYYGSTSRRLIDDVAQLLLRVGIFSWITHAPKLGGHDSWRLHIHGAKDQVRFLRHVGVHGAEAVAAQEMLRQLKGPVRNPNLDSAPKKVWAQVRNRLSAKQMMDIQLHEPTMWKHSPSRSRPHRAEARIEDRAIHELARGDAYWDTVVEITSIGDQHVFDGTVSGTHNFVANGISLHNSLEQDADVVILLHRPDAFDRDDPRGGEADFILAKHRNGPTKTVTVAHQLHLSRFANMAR

[3] = target: T2, Protein RecA (Mycobacterium tuberculosis, UniProt P9WHJ3); assay: Fluorescence Cell-Free Homogeneous Dose Retest to Identify Inhibitors of RecA-Intein Splicing Activity. [Related pubchem assays (depositor defined):AID2097, AID2223, AID489010, AID492950]; assay type: functional
T2 sequence (P9WHJ3 whole entry): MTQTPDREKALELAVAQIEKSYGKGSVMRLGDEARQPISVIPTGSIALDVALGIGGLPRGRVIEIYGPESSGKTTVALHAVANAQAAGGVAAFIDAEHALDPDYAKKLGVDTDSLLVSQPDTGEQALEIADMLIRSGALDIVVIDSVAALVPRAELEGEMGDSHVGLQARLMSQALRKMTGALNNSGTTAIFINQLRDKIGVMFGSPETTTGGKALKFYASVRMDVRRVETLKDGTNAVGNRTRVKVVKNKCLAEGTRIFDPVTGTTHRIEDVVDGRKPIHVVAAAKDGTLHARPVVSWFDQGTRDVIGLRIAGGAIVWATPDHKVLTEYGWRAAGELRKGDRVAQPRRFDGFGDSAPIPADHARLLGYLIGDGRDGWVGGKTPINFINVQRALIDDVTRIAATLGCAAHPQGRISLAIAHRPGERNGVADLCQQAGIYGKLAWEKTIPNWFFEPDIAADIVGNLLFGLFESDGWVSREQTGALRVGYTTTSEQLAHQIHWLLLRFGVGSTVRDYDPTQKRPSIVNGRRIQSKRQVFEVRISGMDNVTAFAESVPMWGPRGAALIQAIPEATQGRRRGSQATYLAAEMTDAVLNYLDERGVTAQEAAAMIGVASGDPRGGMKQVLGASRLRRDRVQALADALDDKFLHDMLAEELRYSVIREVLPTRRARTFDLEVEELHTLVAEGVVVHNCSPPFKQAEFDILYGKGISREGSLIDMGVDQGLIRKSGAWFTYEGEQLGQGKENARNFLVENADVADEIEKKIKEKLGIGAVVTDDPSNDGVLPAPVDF

[4] = microbe, parasite or virus in culture; assay type: functional; conditions: Mycobacterium tuberculosis
[5] = viability of PTEN-deleted HCT116 cells – cell-based, HCT116 PTEN knockout, dose response (AID 1047); assay type: functional;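 note: HCT116 colon tumor cells with PTEN knocked out; cells exposed to compound for 60 hours before readout; potency for loss of cell viability measured by luminescence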
[6] = viability of HCT116 lacking mutant beta-catenin – cell-based, human colon tumor, dose response (AID 1045); assay type: functional;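 note: HCT116 colon tumor cells with beta catenin knocked out; cells exposed to compound for 60 hours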
[7] = viability loss in THP-1 monocytes – THP-1 cells, cytotoxicity control for Vif-APOBEC3G degradation inhibitor project, dose response (AID 1117359); assay type: functional; conditions: THP-1
[8] = target: T3, Estrogen receptor (Homo sapiens, UniProt P03372);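 note: potency for inhibiting coactivator peptide recruitment to the receptor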
T3 sequence (P03372 whole entry): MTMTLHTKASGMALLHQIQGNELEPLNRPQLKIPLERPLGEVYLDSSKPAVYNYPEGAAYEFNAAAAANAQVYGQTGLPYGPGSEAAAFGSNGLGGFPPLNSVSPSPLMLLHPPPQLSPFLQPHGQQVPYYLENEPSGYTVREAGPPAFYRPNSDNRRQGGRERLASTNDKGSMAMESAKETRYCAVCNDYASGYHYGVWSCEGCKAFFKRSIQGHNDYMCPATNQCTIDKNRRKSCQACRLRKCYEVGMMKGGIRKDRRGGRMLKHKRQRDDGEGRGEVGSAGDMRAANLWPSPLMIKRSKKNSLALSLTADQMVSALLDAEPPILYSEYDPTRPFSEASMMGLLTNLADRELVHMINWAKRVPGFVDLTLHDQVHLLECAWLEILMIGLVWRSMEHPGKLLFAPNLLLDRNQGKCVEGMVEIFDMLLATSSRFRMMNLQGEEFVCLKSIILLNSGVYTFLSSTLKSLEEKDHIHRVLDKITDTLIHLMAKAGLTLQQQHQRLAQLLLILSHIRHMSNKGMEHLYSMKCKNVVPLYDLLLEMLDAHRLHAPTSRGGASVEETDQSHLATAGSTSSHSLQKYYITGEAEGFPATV

[9] = target: Cytochrome P450 2D6 (Homo sapiens, UniProt P10635);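 note: CYP2D6 member of a cytochrome P450 panel assay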
[10] = target: Cytochrome P450 3A4 (Homo sapiens, UniProt P08684);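 note: CYP3A4 tested as one member of a cytochrome P450 panel screen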
[11] = P. falciparum Dd2 growth inhibitors, dose response, SYBR Green, cherry-picked samples (AID 1159567); assay type: functional, cell-based
[12] = blockers of HIV-1 ZM109 envelope-driven cell-cell fusion – HeLa effector, CEM target cells, luciferase, cherry-pick, dose response (AID 652058); assay type: functional, cell-based;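 note: luciferase signal from HIV-1 Env mediated cell-cell fusion of effector and target cells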
[13] = blockers of HIV-1 envelope-mediated cell-cell fusion – cherry-pick, dose response (AID 652057); assay type: functional, cell-based
[14] = HIV-1 AD8 envelope cell-cell fusion blockers – cherry-pick, dose response (AID 652062); assay type: functional, cell-based;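 note: luciferase signal from cell-cell fusion driven by HIV-1 clade B AD8 Env; potency is for inhibitors of fusion seen as a drop in luminescence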
[15] = off-target signal loss in HeLa-CEM21 co-culture – HeLa F-luc CTL cells, cherry-picked, counter-screen for HIV-1 Env fusion inhibitor project, dose response (AID 652040); assay type: functional, cell-based;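 note: potency for signal decrease marking cytotoxic or nonspecific inhibition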
[16] = Luminescence Cell-Based Dose Retest to Confirm Inhibitors of Cancer Stem Cells. [Related pubchem assays (depositor defined):AID2717, AID2721]; assay type: functional; conditions: Homo sapiens
[17] = Luminescence Cell-Based Dose Confirmation HTS to Identify Activators of 5'UTR Stem-Loop Driven Alpha-Synuclein mRNA Translation in H4 Neuroglioblastoma Cells. [Related pubchem assays: 1829 (Project Summary), 1814 (Primary HTS)]; assay type: functional
[18] = test system: H4; assay: Luminescence Cell-Based Dose Response HTS to Identify Activators of 5'UTR Stem-Loop Driven Prion Protein mRNA Translation in H4 Neuroglioblastoma Cells. [Related pubchem assays: 1829 (Project Summary), 1814 (Primary HTS)]; assay type: functional; conditions: Homo sapiens
[19] = Luminescence Cell-Based Dose Response HTS to Identify Activators of Luciferase Translation or Activity in H4 […] Cells. [Related pubchem assays: 1829 (Project Summary), 1814 (Primary HTS)]; assay type: functional
[20] = target: T4, Carboxy-terminal domain RNA polymerase II polypeptide A small phosphatase 1 (Homo sapiens, UniProt Q9GZU7); assay: CTDSP1 inhibitors, concentration-response, biochemical, absorbance readout, ultra-high-throughput screen actives (AID 540297); assay type: functional
T4 sequence (Q9GZU7 whole entry): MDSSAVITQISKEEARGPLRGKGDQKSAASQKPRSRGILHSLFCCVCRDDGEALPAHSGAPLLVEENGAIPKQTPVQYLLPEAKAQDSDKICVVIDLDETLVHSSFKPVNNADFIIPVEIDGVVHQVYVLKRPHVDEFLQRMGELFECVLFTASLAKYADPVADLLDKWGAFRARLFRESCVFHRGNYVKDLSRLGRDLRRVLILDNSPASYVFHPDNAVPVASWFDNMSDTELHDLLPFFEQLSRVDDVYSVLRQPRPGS

[21] = cells; assay type: functional, cell-based
[22] = target: T5, Nuclear receptor subfamily 0 group B member 1 (Homo sapiens, UniProt P51843); assay type: functional, cell-based;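 note: HEK293T cells transfected with SF-1 and DAX-1 plus StAR promoter luciferase reporter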
T5 sequence (P51843 whole entry): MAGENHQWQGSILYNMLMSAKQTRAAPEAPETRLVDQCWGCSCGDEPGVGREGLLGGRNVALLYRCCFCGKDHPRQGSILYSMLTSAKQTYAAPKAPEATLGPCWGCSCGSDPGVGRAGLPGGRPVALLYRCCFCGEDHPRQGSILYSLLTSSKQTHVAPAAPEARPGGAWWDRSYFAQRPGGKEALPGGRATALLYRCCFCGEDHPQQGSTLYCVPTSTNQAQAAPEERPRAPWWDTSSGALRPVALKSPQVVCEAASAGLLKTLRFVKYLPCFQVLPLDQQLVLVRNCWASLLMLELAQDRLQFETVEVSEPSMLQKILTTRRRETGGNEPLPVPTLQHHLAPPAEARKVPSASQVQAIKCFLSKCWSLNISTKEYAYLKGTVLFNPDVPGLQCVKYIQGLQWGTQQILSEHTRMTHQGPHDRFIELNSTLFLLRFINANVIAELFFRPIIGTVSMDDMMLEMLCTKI

Glucose-6-phosphate 1-dehydrogenase, sequence (P11413 whole entry): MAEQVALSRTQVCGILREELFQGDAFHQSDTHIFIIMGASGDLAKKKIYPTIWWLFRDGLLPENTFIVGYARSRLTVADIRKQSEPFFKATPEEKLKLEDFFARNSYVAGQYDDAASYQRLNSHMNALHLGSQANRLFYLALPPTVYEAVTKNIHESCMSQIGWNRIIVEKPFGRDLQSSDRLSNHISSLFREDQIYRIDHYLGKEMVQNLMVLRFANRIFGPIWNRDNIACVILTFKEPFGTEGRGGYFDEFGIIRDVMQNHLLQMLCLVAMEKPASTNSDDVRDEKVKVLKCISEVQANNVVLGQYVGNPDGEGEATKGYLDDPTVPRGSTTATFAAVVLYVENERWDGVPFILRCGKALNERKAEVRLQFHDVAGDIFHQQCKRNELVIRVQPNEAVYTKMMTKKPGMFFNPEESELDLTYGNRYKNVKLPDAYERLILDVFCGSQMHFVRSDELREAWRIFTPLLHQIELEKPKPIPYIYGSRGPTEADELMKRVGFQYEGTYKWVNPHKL
Cytochrome P450 3A4, sequence (P08684 whole entry): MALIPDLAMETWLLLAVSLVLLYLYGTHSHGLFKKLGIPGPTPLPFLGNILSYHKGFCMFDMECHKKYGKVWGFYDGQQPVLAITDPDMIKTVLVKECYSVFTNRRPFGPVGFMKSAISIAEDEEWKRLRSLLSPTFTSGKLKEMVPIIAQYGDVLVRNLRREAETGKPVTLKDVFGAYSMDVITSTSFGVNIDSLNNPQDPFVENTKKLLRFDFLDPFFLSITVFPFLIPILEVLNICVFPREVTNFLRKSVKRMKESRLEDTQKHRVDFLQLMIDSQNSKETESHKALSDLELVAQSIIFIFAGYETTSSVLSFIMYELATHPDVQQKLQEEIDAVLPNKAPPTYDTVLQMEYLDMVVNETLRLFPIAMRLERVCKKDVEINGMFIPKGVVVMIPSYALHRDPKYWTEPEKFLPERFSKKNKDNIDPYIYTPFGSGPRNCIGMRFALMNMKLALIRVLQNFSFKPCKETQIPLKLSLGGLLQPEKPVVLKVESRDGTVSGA
Cytochrome P450 2D6, sequence (P10635 whole entry): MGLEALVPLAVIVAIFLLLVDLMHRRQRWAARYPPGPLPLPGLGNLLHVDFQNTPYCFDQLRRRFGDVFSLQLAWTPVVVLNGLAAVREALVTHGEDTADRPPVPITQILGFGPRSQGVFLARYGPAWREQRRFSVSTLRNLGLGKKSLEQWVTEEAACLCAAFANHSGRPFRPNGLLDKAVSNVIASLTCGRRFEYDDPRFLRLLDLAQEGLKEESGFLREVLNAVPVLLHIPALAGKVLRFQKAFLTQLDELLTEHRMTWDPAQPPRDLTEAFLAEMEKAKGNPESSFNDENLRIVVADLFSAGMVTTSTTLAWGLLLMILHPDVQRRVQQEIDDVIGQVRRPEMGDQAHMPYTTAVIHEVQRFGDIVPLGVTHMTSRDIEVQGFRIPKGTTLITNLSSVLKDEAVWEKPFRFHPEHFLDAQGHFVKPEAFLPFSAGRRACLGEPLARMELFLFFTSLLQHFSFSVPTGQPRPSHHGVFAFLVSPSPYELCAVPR

CCOc1ccccc1CNc1ccc(O)cc1
IC50 [1]: > 80 µM (inactive) | AC50 [2]: > 380 µM (inactive) | EC50 [3]: 14 µM (active)

CCOC(=O)N1CCc2c(sc(NC(=O)c3ccc(Cl)s3)c2C(N)=O)C1
CC50 [4]: 17.3 µM (active) | EC50 [5]: 15.7 µM (active) | EC50 [6]: 19.4 µM (active)

COc1ccc(NC(=O)/C(C#N)=C\c2ccc(Br)o2)cc1
CC50 [7]: 3.4 µM (active)

CN1CCN(c2cc(-c3ccccc3)nc3cc(-c4ccc(F)cc4)nn23)CC1
CC50 [4]: 11.7 µM (active) | EC50 [5]: 10.6 µM (active) | EC50 [6]: 9.14 µM (active)

CC1(C)Cc2c(sc3c4nnnn4c4nnnn4c23)CO1
IC50 [8]: 4.11 µM (active)

Oc1ccc(C2c3sc(O)nc3SC3C4CCC(C4)C23)cc1 (centres undefined)
IC50 [8]: > 50 µM (not active)

NCCc1c[nH]c2ccccc12 [TRYPTAMINE]
AC50 [9]: 31.6 µM (inconclusive) | CC50 [7]: > 40 µM (active) | AC50 [10]: inconclusive

COc1cccc(NC(=O)N2CC(=O)N3[C@H](CO)[C@@H](c4ccc(C#CCC5CCCC5)cc4)[C@H]3C2)c1
AC50 [11]: 8.6 µM (active)

CC[C@@]12C(=O)N(c3ccccc3)C(=O)N1[C@H](c1cccc(C)c1)[C@@H]1C(=O)N(Cc3ccccc3)C(=O)[C@@H]12
AC50 [12]: 3.8 µM (active) | AC50 [13]: 3.83 µM (active) | AC50 [14]: 5.26 µM (active) | AC50 [15]: 4.02 µM (active)

Cc1ccc(-c2cc(-c3ccccc3C)[nH]n2)c(O)c1
AC50 [16]: 7.98 µM (active) | CC50 [4]: > 40 µM (active)

C/C(Cn1nnc([N+](=O)[O-])n1)=N\NC(=O)c1ccccc1
IC50 [1]: > 80 µM (inactive) | EC50 [17]: > 120 µM (not active) | EC50 [18]: > 120 µM (not active) | EC50 [19]: > 120 µM (not active)

COC(=O)c1cc(NC(=O)Cn2c(=O)cnc3ccccc32)cc(C(=O)OC)c1
IC50 [8]: > 50 µM (not active)

Oc1nnc(Cc2ncc(C(F)(F)F)cc2Cl)c2ccccc12
CC50 [7]: > 40 µM (active)

Cc1cc(NC(=O)CCC(=O)N(C2CC2)C2(C(=O)NC3CCCC3)CCC(C)CC2)no1 (centres undefined)
AC50 [12]: 3.3 µM (active) | AC50 [13]: 5.4 µM (active) | AC50 [14]: 13.4 µM (active) | AC50 [15]: 6.16 µM (active)

Cc1nnc(SCC(=O)NC(=O)NCc2ccco2)n1Cc1ccccc1
IC50 [8]: < 1.56 µM (active) | IC50 [20]: 5.15 µM (active)

FC(F)(F)c1cccc(CN2[C@@H]3CNC[C@H]2[C@@H]3c2ccc(-c3cccnc3)cc2)c1
AC50 [11]: 4.42 µM (active)

O=C(NCCc1ccc(Cl)cc1)c1ccc(C[S+]([O-])Cc2ccc(Cl)cc2)o1 (centres undefined)
CC50 [4]: > 40 µM (active)

CC[C@]1(C(=O)OC)[C@H]2C(=O)N(Cc3ccccc3)C(=O)[C@H]2[C@H]2CN=C(SCC3CC3)N21
AC50 [12]: 1.45 µM (active) | AC50 [13]: 1.12 µM (active) | AC50 [14]: 5.46 µM (active) | AC50 [15]: 2.66 µM (active)

CC(=O)C1=C(C)N(Cc2ccc(Cl)cc2)C(=S)NC1c1cccc(Br)c1 (centres undefined)
AC50 [12]: 4.16 µM (active) | AC50 [13]: 5.96 µM (active) | AC50 [14]: 22.6 µM (active) | AC50 [15]: 15.9 µM (active)

COc1ccc(C#Cc2ccc3c(c2)[C@H]2[C@H](CCN2C(=O)C2CCC2)[C@H](CO)N3)cc1
AC50 [11]: 3.3 µM (active)

CN1C(=O)CSc2ccc(NC(=O)N3CCc4ccccc43)cc21
IC50 [1]: > 80 µM (inactive) | IC50 [21]: > 67.5 µM (inactive) | IC50 [22]: > 67.5 µM (inactive)

CCC(=O)N1CCC2(CC1)CN(Cc1cccc(Cl)c1)[C@H](CO)c1c2c2ccc(OC)cc2n1C
AC50 [11]: 4.8 µM (active)
